Laboratory results: publication PMC11788862 (Journal of Pharmaceutical Analysis, 2024)

Legend:
[1] = target: NOD-like receptor protein 3 (NLRP3) (Homo sapiens, UniProt Q96P20); experiment: SPR; assay type: binding
[2] = target: NLRP3 (Mus musculus, UniProt Q8R4B8); experiment: DARTS; assay type: cell-based
NLRP3, sequence (Q8R4B8 whole entry): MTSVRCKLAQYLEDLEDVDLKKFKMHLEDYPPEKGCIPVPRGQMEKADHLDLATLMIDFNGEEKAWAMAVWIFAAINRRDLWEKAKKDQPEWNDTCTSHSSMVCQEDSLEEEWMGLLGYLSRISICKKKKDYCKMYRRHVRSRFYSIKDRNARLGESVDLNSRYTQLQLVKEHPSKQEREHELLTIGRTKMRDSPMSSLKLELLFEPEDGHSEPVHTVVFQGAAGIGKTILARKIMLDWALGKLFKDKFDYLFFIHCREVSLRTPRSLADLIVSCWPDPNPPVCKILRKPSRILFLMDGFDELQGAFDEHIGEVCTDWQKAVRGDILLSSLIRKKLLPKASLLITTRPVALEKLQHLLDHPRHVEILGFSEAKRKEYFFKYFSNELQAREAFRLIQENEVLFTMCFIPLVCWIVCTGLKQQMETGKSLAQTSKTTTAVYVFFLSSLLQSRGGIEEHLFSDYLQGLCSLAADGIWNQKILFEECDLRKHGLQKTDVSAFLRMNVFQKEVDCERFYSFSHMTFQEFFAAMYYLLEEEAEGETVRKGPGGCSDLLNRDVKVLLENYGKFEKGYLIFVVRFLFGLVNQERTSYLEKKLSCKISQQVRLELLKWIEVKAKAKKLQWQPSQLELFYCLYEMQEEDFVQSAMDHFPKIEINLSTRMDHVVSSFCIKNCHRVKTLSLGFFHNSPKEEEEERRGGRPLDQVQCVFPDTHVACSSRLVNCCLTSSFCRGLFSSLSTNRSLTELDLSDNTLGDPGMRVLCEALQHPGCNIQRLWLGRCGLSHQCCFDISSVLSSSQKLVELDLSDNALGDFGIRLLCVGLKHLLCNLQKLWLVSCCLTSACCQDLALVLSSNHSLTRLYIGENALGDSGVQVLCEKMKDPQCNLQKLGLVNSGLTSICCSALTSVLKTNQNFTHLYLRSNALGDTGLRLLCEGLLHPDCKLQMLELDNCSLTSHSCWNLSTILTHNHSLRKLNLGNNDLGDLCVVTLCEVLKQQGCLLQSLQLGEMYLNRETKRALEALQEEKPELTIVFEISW

NOD-like receptor protein 3 (NLRP3), sequence (Q96P20 220-536 limits assumed): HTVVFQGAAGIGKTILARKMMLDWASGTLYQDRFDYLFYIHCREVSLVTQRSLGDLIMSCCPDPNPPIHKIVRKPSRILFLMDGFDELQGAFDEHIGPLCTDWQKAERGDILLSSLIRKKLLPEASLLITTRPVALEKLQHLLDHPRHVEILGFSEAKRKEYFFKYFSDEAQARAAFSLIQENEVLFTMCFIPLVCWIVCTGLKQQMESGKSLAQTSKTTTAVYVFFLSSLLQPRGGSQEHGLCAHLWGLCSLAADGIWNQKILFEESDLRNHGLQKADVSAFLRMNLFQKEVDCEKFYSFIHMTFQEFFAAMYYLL

## Oc1c(I)cc(Cl)c2cccnc12 [CQ, 5-chloro-7-iodo-8-hydroxyquinoline]
[1]
  Kd: 9.93 µM
[2]
  DARTS (BMDM lysates, CQ 15 μM) and CETSA (BMDMs): pre-incubation of CQ with BMDM cell lysates attenuated pronase-induced proteolysis of NLRP3
